Assay results: patent US20230041743A1, “1,8-NAPHTHYRIDIN-2-ONE COMPOUNDS FOR THE TREATMENT OF AUTOIMMUNE DISEASE” (Hoffmann-La Roche Inc., priority 2019, published 2023)

Molecular target: T1, hERG channel (Homo sapiens, UniProt Q12809)
T1 construct: expressed in transfected cells; host or cells: CHO (Chinese hamster ovary), CHOhERG
Experiment: hERG channel inhibition assay (patch-clamp, CHOhERG cells)
Format: cell-based
Details: whole-cell patch-clamp; for IC20: human, CHO cells stably expressing hERG (CHOhERG)
Method: hERG Channel Inhibition Assay
The hERG K^+ channels were cloned in humans and stably expressed in a CHO (Chinese hamster ovary) cell line. CHOhERG cells were used for patch-clamp (voltage-clamp, whole-cell) experiments. Cells were stimulated by a voltage pattern to activate hERG channels and conduct IKhERG Currents (rapid delayed outward rectifier potassium current of the hERG channel). After the cells were stabilized for a few minutes, the amplitude and kinetics of IKhERG were recorded at a stimulation frequency of 0.1 Hz (6 bpm). Thereafter, the test compound was added to the preparation at increasing concentrations. For each concentration, an attempt was made to reach a steady-state effect, usually, this was achieved within 3-10 min at which time the next highest concentration was applied. The amplitude and kinetics of IKhERG are recorded in each concentration of the drug which were compared to the control values (taken as 100%). (references: Redfern W S, Carlsson L, Davis A S, Lynch W G, MacKenzie I, Palethorpe S, Siegl P K, Strang I, Sullivan A T, Wallis R, Camm A J, Hammond T G. 2003; Relationships between preclinical cardiac electrophysiology, clinical QT interval prolongation and torsade de pointes for a broad range of drugs: evidence for a provisional safety margin in drug development. Cardiovasc. Res. 58:32-45, Sanguinetti M C, Tristani-Firouzi M. 2006; hERG potassium channels and cardiac arrhythmia. Nature 440:463-469, Webster R, Leishman D, Walker D. 2002; Towards a drug concentration effect relationship for QT prolongation and torsades de pointes. Curr. Opin. Drug Discov. Devel. 5:116-26).

T1 sequence (Q12809 whole entry): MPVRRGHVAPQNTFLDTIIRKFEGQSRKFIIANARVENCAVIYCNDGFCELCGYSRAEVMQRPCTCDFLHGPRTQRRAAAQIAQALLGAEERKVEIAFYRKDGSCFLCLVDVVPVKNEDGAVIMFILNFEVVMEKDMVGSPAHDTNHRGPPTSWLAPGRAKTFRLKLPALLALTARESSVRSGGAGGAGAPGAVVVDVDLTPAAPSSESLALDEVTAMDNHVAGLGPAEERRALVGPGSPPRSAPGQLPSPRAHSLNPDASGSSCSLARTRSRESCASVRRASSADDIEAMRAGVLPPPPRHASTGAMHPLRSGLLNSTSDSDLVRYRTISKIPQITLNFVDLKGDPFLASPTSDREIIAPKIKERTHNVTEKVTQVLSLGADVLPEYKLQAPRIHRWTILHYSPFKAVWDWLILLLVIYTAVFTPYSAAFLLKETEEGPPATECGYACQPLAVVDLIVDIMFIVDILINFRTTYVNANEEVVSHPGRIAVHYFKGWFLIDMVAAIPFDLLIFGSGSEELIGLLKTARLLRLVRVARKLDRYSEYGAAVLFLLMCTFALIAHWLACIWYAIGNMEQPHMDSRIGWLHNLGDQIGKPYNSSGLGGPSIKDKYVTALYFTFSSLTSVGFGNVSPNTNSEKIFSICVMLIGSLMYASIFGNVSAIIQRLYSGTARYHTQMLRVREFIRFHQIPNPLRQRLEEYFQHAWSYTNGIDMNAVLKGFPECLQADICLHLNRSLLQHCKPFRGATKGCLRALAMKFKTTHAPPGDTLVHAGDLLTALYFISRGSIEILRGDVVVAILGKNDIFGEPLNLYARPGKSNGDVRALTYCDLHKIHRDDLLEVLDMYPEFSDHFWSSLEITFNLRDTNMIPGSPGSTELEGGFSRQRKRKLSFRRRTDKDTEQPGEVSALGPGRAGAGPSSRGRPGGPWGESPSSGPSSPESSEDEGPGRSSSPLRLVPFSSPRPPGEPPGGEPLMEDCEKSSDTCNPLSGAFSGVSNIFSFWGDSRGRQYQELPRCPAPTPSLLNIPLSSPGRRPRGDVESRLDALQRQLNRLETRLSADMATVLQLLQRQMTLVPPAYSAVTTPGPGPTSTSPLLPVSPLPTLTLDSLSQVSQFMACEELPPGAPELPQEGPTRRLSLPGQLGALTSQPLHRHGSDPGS

| SMILES | IC20 | IC50 |
| --- | --- | --- |
| C[C@@H]1CN(c2ccc3c(c2)CN2[C@H](C)CN(c4cc(=O)n(C)c5ncccc45)C[C@H]32)CCN1 [Example 14, 4-[(4R,10bS)-4-methyl-8-[(3R)-3-methylpiperazin-1-yl]-3,4,6,10b-tetrahydro-1H-pyrazino[2,1-a]isoindol-2-yl]-1-methyl-1,8-naphthyridin-2-one] | > 10 µM | > 20 µM |
| C[C@@H]1CN(c2cc(=O)n(C)c3ncccc23)C[C@@H]2c3ccc(N4CCC(C)(N)CC4)cc3CN12 [Example 18, 4-[(4R,10bS)-8-(4-amino-4-methyl-1-piperidyl)-4-methyl-3,4,6,10b-tetrahydro-1H-pyrazino[2,1-a]isoindol-2-yl]-1-methyl-1,8-naphthyridin-2-one] | > 10 µM | > 20 µM |
| C[C@@H]1CN(c2cc(=O)n(C)c3ncccc23)C[C@@H]2c3ccc(N4CCC[C@](C)(N)C4)cc3CN12 [Example 15, 4-[(4R,10bS)-8-[(3S)-3-amino-3-methyl-1-piperidyl]-4-methyl-3,4,6,10b-tetrahydro-1H-pyrazino[2,1-a]isoindol-2-yl]-1-methyl-1,8-naphthyridin-2-one] | > 10 µM | > 20 µM |
| CO[C@@H]1CN(c2ccc3c(c2)CN2[C@H](C)CN(c4cc(=O)n(C)c5ncccc45)C[C@H]32)C[C@H]1N [Example 5, 4-[(4R,10bS)-8-[(3R,4R)-3-amino-4-methoxy-pyrrolidin-1-yl]-4-methyl-3,4,6,10b-tetrahydro-1H-pyrazino[2,1-a]isoindol-2-yl]-1-methyl-1,8-naphthyridin-2-one] | > 10 µM | > 20 µM |
| C[C@@H]1CN(c2cc(=O)n(C)c3ncccc23)C[C@@H]2c3ccc(N4C[C@@H]5C[C@H]4CN5)cc3CN12 [Example 19, 4-[(4R,10bS)-8-[(1S,4S)-2,5-diazabicyclo[2.2.1]heptan-2-yl]-4-methyl-3,4,6,10b-tetrahydro-1H-pyrazino[2,1-a]isoindol-2-yl]-1-methyl-1,8-naphthyridin-2-one] | > 10 µM | > 20 µM |
| C[C@@H]1CN(c2cc(=O)n(C)c3ncccc23)C[C@@H]2c3ccc(N4CCOC[C@H](N)C4)cc3CN12 [Example 22, 4-[(4R,10bS)-8-[(6R)-6-amino-1,4-oxazepan-4-yl]-4-methyl-3,4,6,10b-tetrahydro-1H-pyrazino[2,1-a]isoindol-2-yl]-1-methyl-1,8-naphthyridin-2-one] | > 10 µM | > 20 µM |
| C[C@@H]1CN(c2cc(=O)n(C)c3ncccc23)C[C@@H]2c3ccc(C4CCNCC4)cc3CN12 [Example 24, 4-[(4R,10bS)-4-methyl-8-(4-piperidyl)-3,4,6,10b-tetrahydro-1H-pyrazino[2,1-a]isoindol-2-yl]-1-methyl-1,8-naphthyridin-2-one] | > 10 µM | > 20 µM |
| C[C@@H]1CN(c2cc(=O)n(C)c3ncccc23)C[C@@H]2c3ccc(N4CCN[C@@H](C)C4)cc3CN12 [Example 13, 4-[(4R,10bS)-4-methyl-8-[(3S)-3-methylpiperazin-1-yl]-3,4,6,10b-tetrahydro-1H-pyrazino[2,1-a]isoindol-2-yl]-1-methyl-1,8-naphthyridin-2-one] | 7.2 µM | > 20 µM |
| C[C@@H]1CN(c2cc(=O)n(C)c3ncccc23)C[C@@H]2c3ccc(N4CC5(CN(C)C5)C4)cc3CN12 [Example 2, 4-[(4R,10bS)-4-methyl-8-(6-methyl-2,6-diazaspiro[3.3]heptan-2-yl)-3,4,6,10b-tetrahydro-1H-pyrazino[2,1-a]isoindol-2-yl]-1-methyl-1,8-naphthyridin-2-one] | > 10 µM | > 20 µM |
